From patent US9102620B2, “Deuterated N-ethyl-N-phenyl-1,2-dihydro-4-hydroxy-5-chloro-1-methyl-2-oxoquinoline-3-carboxamide, salts and uses thereof” (TEVA PHARMACEUTICAL INDUSTRIES, LTD., priority 2010, dated 2015)

Assay: DELAQ concentrations in rat plasma following oral administration of test item
Assay type: in vivo
Conditions: rats, oral 0.2 mg/kg, in average
Method: DELAQ in rat plasma was also determined under the following condition. The plasma was purified by on-line SPE after precipitation with LUDOX AS-40 colloidal silica solution followed by the analysis with HPLC with MS/MS detection. The main objectives of this example were: • Quantification of Compound 1, Compound 2, Compound 3 and Laquinimod in rat plasma using LC/MS/MS bioanalytical method. • Characterization of the pharmacokinetic profile of Compound 1, Compound 2, Compound 3 and Laquinimod following oral (PO) administration at a dose of 0.2 mg/kg. • The measurement DELAQ concentrations in the collected plasma samples. Blood was withdrawn from the rats at five different time points for the preparation of plasma. The concentrations of Compound 1, Compound 2, Compound 3, laquinimod, and DELAQ were determined in these plasma samples, using applicable LC/MS/MS methods. The concentrations of test items (Compound 1, Compound 2, Compound 3 and Laquinimod) and the concentration of DELAQ were determined in the plasma samples by using reliable LC/MS/MS assay.

[2H]C([2H])([2H])C([2H])([2H])N(C(=O)c1c(O)c2c(Cl)cccc2n(C)c1=O)c1ccccc1 [Compound 2, N-D5-ethyl-N-phenyl-1,2-dihydro-4-hydroxy-5-chloro-1-methyl-2-oxoquinoline-3-carboxamide]
reduction in DELAQ concentrations compared to laquinimod treated animals: about ten-fold
